Results on one compound are retold here after patent publication US20170156315A1, “METHODS AND COMPOSITIONS OF GRANULE FORMULATIONS” (AgroFresh Inc., priority 2010, published 2017).

For this assay, the system named is rice plants. The experiment in a line: Treatment of rice plants in open fields, yield. The assay is classed as in vivo. The following applies: rice field trial, single application of 50 g a.i./hectare 1-MCP with sample 7-3. From the text: Assessment of Improvement to Crop Yield—Each treated plot is compared to an appropriate untreated control plot. The outcome is reported as “DY %” (Delta Yield Percent), which is defined as follows:
where YT=yield of the treated plot, and where YU=yield of the untreated plot. For example, DY of 10% means the treated plot has yield that is 10% higher than the untreated plot. Negative Delta Yield means that the treated rice has lower yield than the untreated crop.
Granule formulations of samples 7-3 and 7-4 are used to treat rice plants in open fields. Typical amount of 1-MCP treated range from 10 g active ingredient (a.i.)/hectare (or 4 g a.i./acre) to 100 g a.i./hectare (or 40 g a.i/acre).
Optimum phonological stages of the rice plants range from maximum tillering through grain filling (for example at least one of: meiosis, complete open of flower, and grain filling). Typically only a single treatment of 1-MCP is performed before harvest, but multiple treatments of 1-MCP before harvest can also be performed. Treatment(s) of 1-MCP on rice plants show yield increase ranging from 14% to 28%, depending on the amount of 1-MCP and stage of treatment(s). Data of a field trial using single application of 50 g a.i./hectare 1-MCP with sample 7-3 (a granule formulation containing 1% 1-MCP) are shown in Table 9

Several values for one entry are separate records, joined by “and”; a condition that tells them apart may be missing. Equal values may be shown once.

In the case of `CC1=CC1` [Sample 1-MCP, 1-methylcyclopropene], where the note is “individual treatments 8-1 to 8-4”, the “Yield (kg/ha)” value is 7340 kg/ha and 7450 kg/ha and 7865 kg/ha and 7715 kg/ha. In addition, the “Mean (kg/ha)” value (mean of treatments 8-1 to 8-4) was determined as 7592.5 kg/ha.
